The term AC50 denotes the concentration giving half of the maximal activity seen.

One test concerns miR-21. The experiment in a line: High throughput primary miR-21 FLuc reporter assay (concentration-response). The class given is cell-based, human. Particulars: HeLa Luc-miR-21 reporter, 48-hour incubation. How it is done: Primary miR-21 Assay. The primary miR-21 FLuc reporter assay is carried out with HeLa cells expressing the Luc-miR-21 reporter using a 48-hour incubation time. Active compounds that increase the luciferase response are identified based upon inhibition of miR-21.
SAR. The concentration-response data for the entire high throughput screen is plotted and modeled by a four parameter logistic fit and SAR analysis is performed according to conventional approaches (Iglese, et al. (2006) Proc. Natl. Acad. Sci. USA […]:11473-8). In brief, Class 1.1 and 1.2 are full curves containing upper and lower asymptotes with efficacy ≧80% and <80%, respectively. Class 2.1 and 2.2 are incomplete curves having only one asymptote with efficacy ≧80% and <80%, respectively. Class 3 curves show activity at only the highest concentration or are poorly fit. […] For SAR analysis, compounds associated with Class 1 and 2.1 curves are clustered using LEADSCOPE® fingerprints. […] Compounds sharing a common scaffold form a series. Candidate series and singletons are chosen for follow up studies. For each lead or series, an appropriate library design method (e.g., point substitution library or matrix library) is selected. Typically, precursors are synthesized and a library of 15-25 compounds is produced for analysis in the above-described assays.
(In general: In a reporter assay the amount or activity of a reporter protein is the signal.)
On to `CC(=NNC(=O)c1ccoc1C)c1cccc2ccccc12` [Compound 209, CC(═NNC(═O)C1═C(C)/O/C═C\1)C2═C/C═C\C3═C\C═C/C═C\2\3], for which the Efficacy is listed as −65.67. On the same count and under the same terms, the result for `Nc1[nH]cnc2nc(SCC(=O)Nc3ccccc3F)nc1-2` [Compound 154, N\C1═C2/N═C(SCC(═O)NC3═C/C═C\C═C\3F)\N═C\2\N═C/N1] reads −64.80.

The test is the same for the next values; noted with them: HeLa Luc-miR-21 reporter, 48-hour incubation, four parameter logistic fit.
Turning to `CC(=NNC(=O)c1ccoc1C)c1cccc2ccccc12` [Compound 209, CC(═NNC(═O)C1═C(C)/O/C═C\1)C2═C/C═C\C3═C\C═C/C═C\2\3], the “Curve Class” value is −2.2. Same read-out and setting: the result for `Nc1[nH]cnc2nc(SCC(=O)Nc3ccccc3F)nc1-2` [Compound 154, N\C1═C2/N═C(SCC(═O)NC3═C/C═C\C═C\3F)\N═C\2\N═C/N1] reads −2.2.

The test is the same for the next values; noted with them: HeLa Luc-miR-21 reporter, 48-hour incubation; read-out: AC50.
For the molecule `CC(=NNC(=O)c1ccoc1C)c1cccc2ccccc12` [Compound 209, CC(═NNC(═O)C1═C(C)/O/C═C\1)C2═C/C═C\C3═C\C═C/C═C\2\3], the AC50 was 7.36 µM. Take `Nc1[nH]cnc2nc(SCC(=O)Nc3ccccc3F)nc1-2` [Compound 154, N\C1═C2/N═C(SCC(═O)NC3═C/C═C\C═C\3F)\N═C\2\N═C/N1]: the AC50 is 14.7 µM.

The same test, now with this note: Homo sapiens.
Turning to `CC(=O)COc1ccc2c3c(c(=O)oc2c1C)CCCCC3` [Compound 261], the AC50 stood at 3.29 µM.

Staying with this test, now noted: Homo sapiens, HeLa, 48 h, HeLa Luc-miR-21 reporter, 48-hour incubation; read-out: AC50.
With `Cc1cc(NC(=O)CSc2nc3ccsc3c(=O)n2NC(=O)c2ccccc2)no1` [Compound 133], the concentration at half-maximal activity (AC50) came out at 5.21 µM. Same read-out and setting: the result for `Cc1ccc(OCCn2cnc3c(N)ncnc32)cc1` [Compound 240] reads 16.5 µM; that for `COc1ccccc1Nc1nc(N)nc(CSc2nc(C)cc(C)n2)n1` [Compound 70], 18.5 µM.

With `COC(=O)/C(=C/c1cccc([N+](=O)[O-])c1)NC(=O)c1ccc(OC)cc1` [Compound 119], the AC50 was 10.4 µM.

As to `O=C(N/N=C/c1ccc2cccnc2c1)c1nc(O)c2ccccc2n1` [Compound 224], the half-maximal activity concentration (AC50) is 13.1 µM. For `O=c1ccc2ccc(OCc3nnc(-c4ccccc4Br)o3)cc2o1` [Compound 28], the concentration at half-maximal activity (AC50) stood at 11.7 µM. Consider `Cc1cc(C)c(C#N)c(SCC(=O)Nc2ccc3c(c2)OCO3)n1` [Compound 128], for which the AC50 was 3.29 µM. Same read-out and setting: as for `Nc1nc(CSCc2ccccc2)nc(N2CCOCC2)n1` [Compound 62], the figure is 14.7 µM.

Consider `C/C(CCc1ccc2c(c1)OCO2)=N\NC(=O)c1ccccc1` [Compound 225], for which the concentration at half-maximal activity (AC50) amounted to 13.1 µM. Still for that read-out and setting: as for `CCn1nnc2cc(C(=O)Nc3ccc(OC)cc3)ccc21` [Compound 93], the figure is 11.7 µM; as for `CC1=NN(C(=O)c2ccc(C)o2)C(O)(c2ccccc2)C1` (stereo not drawn) [Compound 231], 16.5 µM; as for `CC1C2CC(C/C2=N\NC(=O)c2cccs2)C1(C)C` (stereo not drawn) [Compound 201], 5.21 µM. On the same count and under the same terms, as for `CC(=O)Nc1ccc(NC(=O)COc2ccc(Cl)cc2Cl)cc1` [Compound 175], the figure is 14.7 µM; as for `C/C(CC(=O)NC(C)(C)C)=N\NC(=O)c1ccco1` [Compound 205], 6.56 µM; as for `O=C(CSc1nnc(-c2ccccn2)o1)Nc1ccccc1C(F)(F)F` [Compound 142], 9.27 µM.

Regarding `COCC1CCN(C(=O)c2oc3c(F)cccc3c2C)C1` (stereo not drawn) [Compound 76], the half-maximal activity concentration (AC50) was found to be 13.1 µM. On the same count and under the same terms, the result for `O=C(c1cccc([N+](=O)[O-])c1)n1nc(-c2ccccc2)nc1NCc1ccccc1` [Compound 40] reads 16.5 µM.

As for `C/C(CC(=O)Nc1cc(C)cc(C)c1)=N\NC(=O)c1ccccn1` [Compound 195], the half-maximal activity concentration (AC50) is 4.65 µM. Still for that read-out and setting: the result for `Cc1ccc(NC(=O)Cc2noc3ccccc23)nc1` [Compound 111] reads 16.5 µM; that for `Cc1cccc(NC(=O)C2Cc3ccccc3O/C2=N/O)c1` (stereo not drawn) [Compound 114], 10.4 µM. Turning to `Cc1ccc(-c2nc3cnccn3c2Nc2ccccc2)o1` [Compound 243], the AC50 is 16.5 µM. Still for that read-out and setting: as for `CCOC(=O)N1CCN(C(=O)CSCc2ccccc2Cl)CC1` [Compound 160], the figure is 16.5 µM; as for `COc1ccc(C2=NN(C(C)=O)C(c3cccs3)C2)cc1OC` (stereo not drawn) [Compound 212], 8.26 µM; as for `COCCNC(=O)C(c1cccnc1)N(Cc1ccccc1)C(=O)Cn1nnc2ccccc21` (stereo not drawn) [Compound 58], 13.1 µM. Same read-out and setting: the result for `CCc1cccc(-n2nnc(-c3nc(-c4cccs4)no3)c2N)c1` [Compound 19] reads 1.65 µM. On the same count and under the same terms, as for `CCc1cccc(-n2nnc(-c3nc(-c4ccccc4Cl)no3)c2N)c1` [Compound 26], the figure is 16.5 µM. As to `C/C(=N\NC(=O)c1ccc(Br)o1)c1ccc(C)o1` [Compound 216], the concentration at half-maximal activity (AC50) is 10.4 µM. Same read-out and setting: as for `Nc1c(C(=O)Nc2ccc(Cl)cc2F)sc2nc(-c3cccs3)ccc12` [Compound 87], the figure is 16.5 µM; as for `Cc1cc(C)c2c(N)c(C(=O)Nc3ccccc3F)sc2n1` [Compound 81], 1.47 µM; as for `Cc1ccccc1Nc1nc(N)nc(CN(C)c2ccccc2)n1` [Compound 71], 18.5 µM. Regarding `O=C(Cc1cccs1)N/N=C/C=C/c1ccccc1[N+](=O)[O-]` [Compound 204], the half-maximal activity concentration (AC50) turned out to be 6.56 µM. On the same count and under the same terms, as for `COc1ccc(-c2noc(-c3nnn(-c4cc(C)ccc4C)c3N)n2)cc1` [Compound 18], the figure is 1.47 µM. With `Nc1nc(Nc2ccccc2)nc(C(F)(F)F)n1` [Compound 67], the concentration at half-maximal activity (AC50) came out at 16.5 µM. As to `Cn1nnc2cc(C(=O)Nc3ccccc3F)ccc21` [Compound 108], the AC50 was 14.7 µM. As to `COCc1cc(C)nc(SCC(=O)Nc2ccc3c(c2)OCCO3)c1C#N` [Compound 145], the AC50 was 11.7 µM.

Take `COc1ccc(NC(=O)CSc2nc(SC)ns2)c(OC)c1` [Compound 125]: the AC50 came out at 2.07 µM.

Regarding `CC(C)N1CCC(=NNC(=O)c2cccs2)CC1` [Compound 206], the concentration at half-maximal activity (AC50) turned out to be 6.56 µM. Same read-out and setting: as for `COc1ccc(C(Nc2ccccn2)c2c(NC(=O)c3ccco3)sc(C)c2C)cc1OC` (stereo not drawn) [Compound 115], the figure is 16.5 µM; as for `COc1ccc(OCC(=O)Nc2cc(-c3nc4ccccc4s3)ccc2C)cc1` [Compound 184], 4.65 µM.

Consider `Cc1ccccc1OCCSc1nnc(C)n1-c1ccccc1` [Compound 50], for which the AC50 stood at 14.7 µM.

In the case of `O=C(CSc1nnc(-c2ccccn2)o1)Nc1cccc(Cl)c1` [Compound 124], the half-maximal activity concentration (AC50) is 1.85 µM. Regarding `O=C(Nc1nnc(S(=O)(=O)N2CCCC2)s1)c1ccc(F)cc1` [Compound 106], the concentration at half-maximal activity (AC50) is 3.69 µM. On the same count and under the same terms, the result for `O=C(CSc1nnc(-c2ccc(Br)cc2)o1)Nc1cccc2ccccc12` [Compound 164] reads 18.5 µM; that for `O=C(N/N=C/c1cccc([N+](=O)[O-])c1)c1nc(O)c2ccccc2n1` [Compound 220], 11.7 µM; that for `COCC(=O)Nc1nnc(C2CCCCC2)s1` [Compound 176], 16.5 µM.

In the case of `C/C(=N\NC(=O)c1ccncc1)c1ccc(NC(=O)c2ccc(Cl)cc2)cc1` [Compound 185], the half-maximal activity concentration (AC50) was found to be 1.47 µM. The same measure, in the same setting: the result for `Cc1ccc(N/C(S)=N/NC(=O)c2nn(C)c(C)c2Cl)cc1` [Compound 203] reads 5.85 µM; that for `CCN(CC)C(=O)CS/C(=N/C#N)Nc1ccccc1F` [Compound 155], 14.7 µM; that for `Cc1oc(/C=N/NS(=O)(=O)c2ccccc2)cc1Br` [Compound 238], 13.1 µM. Consider `COCC(=O)n1nc(-c2ccco2)nc1NCc1ccccc1Cl` [Compound 39], for which the concentration at half-maximal activity (AC50) came to 16.5 µM. As for `Cc1cccc(OCC(=O)Nc2sc3c(c2C#N)CCC3)c1` [Compound 168], the half-maximal activity concentration (AC50) is 6.56 µM.

The same test, now with this note: Homo sapiens, Table 12 singletons; read-out: AC50.
Turning to `CCOc1cccc(OCCOc2ccccc2[N+](=O)[O-])c1` [Compound 303], the AC50 was found to be 14.7 µM. Still for that read-out and setting: as for `CCC(C)NC(=O)CCCn1c(=O)c2cccn2c2ccccc21` (stereo not drawn) [Compound 251], the figure is 0.93 µM; as for `O=C(CC1NCCc2ccccc21)Nc1cccc(Cl)c1` (stereo not drawn) [Compound 315], 16.5 µM; as for `CC(C)(C)c1ccc(CN2C(=O)c3ccccc3S2(=O)=O)cc1` [Compound 308], 14.7 µM. The same measure, in the same setting: as for `CC(/C=C/c1ccccc1)=N\N/C(S)=N/C(C)C` [Compound 302], the figure is 14.7 µM. Still for that read-out and setting: as for `COc1ccc(-c2nn3c(-c4ccccc4)nnc3s2)cc1OC` [Compound 310], the figure is 14.7 µM.

As to `O=C(Nc1ccccc1)c1cc2n(n1)C(C(F)(F)F)CC(C1CC1)N2` (stereo not drawn) [Compound 272], the half-maximal activity concentration (AC50) is 6.56 µM. Take `CN(C)c1ccc(-n2cccc2/C=N/n2cnnc2)cc1` [Compound 282]: the AC50 was found to be 8.26 µM. Still for that read-out and setting: the result for `C[C@]12CC[C@H]3C(=CCc4cc(O)ccc43)[C@@H]1CCC2=O` [Compound 281] reads 7.36 µM; that for `CNc1nc(C)c(C(=O)OCc2ccccc2)s1` [Compound 316], 16.5 µM. On the same count and under the same terms, as for `CCCCC12CN3CCN(CC(C3)/C1=N/NC(=O)c1ccccc1N)C2` [Compound 285], the figure is 9.27 µM. For the molecule `COc1ccc(-c2nc3c(Br)c(N)c(Br)cc3o2)cc1` [Compound 256], the half-maximal activity concentration (AC50) came to 2.07 µM.

Consider `O=C(NC1CCCCCC1)C1CCCN(c2ncccn2)C1` (stereo not drawn) [Compound 339], for which the AC50 turned out to be 18.5 µM.

As for `CSc1ccc(-c2cccc([N+](=O)[O-])c2)nn1` [Compound 277], the AC50 came to 6.56 µM.

Take `CCCCCc1nc2c(=O)n(C)c3ccccc3c2o1` [Compound 324]: the AC50 was determined as 16.5 µM. On the same count and under the same terms, the result for `Nc1c(Cl)cc2c(c1Oc1ccccc1)C(=O)c1ccccc1C2=O` [Compound 266] reads 4.14 µM; that for `O=c1c(=Nc2ccccc2O)c(=O)c2ccccc12` [Compound 294], 13.1 µM; that for `O=C(NC12CC3CC(CC(C3)C1)C2)N1CCN(C(=O)c2ccco2)CC1` [Compound 317], 16.5 µM. On the same count and under the same terms, as for `CCN(CC)CCCNC(=O)CCC(=O)Nc1ccc2nc(N3CCC(C)CC3)cc(C)c2c1` [Compound 341], the figure is 18.5 µM. Still for that read-out and setting: as for `COc1ccc(NCc2cccn2-c2nnc(N3CCC(C)CC3)s2)c(OC)c1` [Compound 255], the figure is 1.85 µM.

The record behind these values is US20120010177A1, “MicroRNA Modulators and Method for Identifying And Using The Same” (The Wistar Institute / North Carolina State University, priority 2008, published 2012).
